Target: T1, Xenopus interphotoreceptor retinoid-binding protein (xIRBP) (Xenopus laevis, UniProt Q7SZI7)
T1 construct: gene rbp3; recombinant full-length four-module xIRBP (1197 amino acids; 131 kDa), free of its thioredoxin fusion partner; vector-derived N-terminal G-L-G-D-P
Assay: fluorescence titration: retinol fluorescence enhancement (also tryptophan quenching, Kd […], and energy transfer, Kd […])

T1 sequence (Q7SZI7 23-1219): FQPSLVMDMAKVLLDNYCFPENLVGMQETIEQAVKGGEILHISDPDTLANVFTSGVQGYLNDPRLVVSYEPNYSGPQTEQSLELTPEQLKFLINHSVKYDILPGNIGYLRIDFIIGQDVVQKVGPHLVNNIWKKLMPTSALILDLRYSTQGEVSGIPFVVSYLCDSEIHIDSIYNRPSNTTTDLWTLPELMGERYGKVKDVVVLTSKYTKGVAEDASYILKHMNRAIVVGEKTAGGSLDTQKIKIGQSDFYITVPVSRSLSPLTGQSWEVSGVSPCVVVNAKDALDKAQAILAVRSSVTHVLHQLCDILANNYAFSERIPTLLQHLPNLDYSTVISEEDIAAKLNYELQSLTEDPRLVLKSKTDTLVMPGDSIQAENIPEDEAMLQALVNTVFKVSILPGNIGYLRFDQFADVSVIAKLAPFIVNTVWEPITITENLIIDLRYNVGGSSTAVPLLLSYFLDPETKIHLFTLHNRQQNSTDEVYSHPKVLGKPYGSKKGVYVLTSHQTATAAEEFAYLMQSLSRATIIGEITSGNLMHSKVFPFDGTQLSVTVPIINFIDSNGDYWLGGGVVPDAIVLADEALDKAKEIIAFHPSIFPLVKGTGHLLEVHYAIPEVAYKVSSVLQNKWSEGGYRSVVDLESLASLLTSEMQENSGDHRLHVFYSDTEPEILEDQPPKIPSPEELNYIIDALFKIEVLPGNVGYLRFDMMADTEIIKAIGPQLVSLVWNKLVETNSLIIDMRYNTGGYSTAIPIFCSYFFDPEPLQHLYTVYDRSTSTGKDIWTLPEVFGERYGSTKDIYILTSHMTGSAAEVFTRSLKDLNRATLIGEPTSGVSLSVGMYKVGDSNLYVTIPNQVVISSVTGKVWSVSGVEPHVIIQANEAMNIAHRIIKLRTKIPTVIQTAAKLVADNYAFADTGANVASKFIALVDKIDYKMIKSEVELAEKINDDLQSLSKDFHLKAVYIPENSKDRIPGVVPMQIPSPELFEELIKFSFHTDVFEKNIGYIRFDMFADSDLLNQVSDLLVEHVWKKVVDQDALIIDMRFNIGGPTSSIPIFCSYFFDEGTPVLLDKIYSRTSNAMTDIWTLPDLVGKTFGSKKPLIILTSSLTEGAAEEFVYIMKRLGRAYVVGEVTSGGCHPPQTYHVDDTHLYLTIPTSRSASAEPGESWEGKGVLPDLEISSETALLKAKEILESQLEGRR

## CC1=C(/C=C/C(C)=C/C=C/C(C)=C/CO)C(C)(C)CCC1 [all-trans retinol]
  Kd: 150 ± 30 nM

— article PMC2185538, “Purification of the full-length Xenopus interphotoreceptor retinoid binding protein and growth of diffraction-quality crystals” (Molecular Vision, 2007)
